Reference: PubChem BioAssay (NCI)
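Growth conditions: 96-well plates. Treatment: test compound, 48 hours, 5 concentrations. Analysis: linear interpolation between bracketing concentrations; unreached endpoints set to highest concentration. At the TGI there is no net growth.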

Tests used:
Assay in all cases: NCI tumour cell line growth inhibition, 48 h
A549 NSCLC = test system: A549 NSCLC
HOP-62 NSCLC = test system: HOP-62 NSCLC
RPMI-8226 leukemia = test system: RPMI-8226 leukemia
M19-MEL melanoma = test system: M19-MEL melanoma
SNB-78 CNS = test system: SNB-78 CNS
SF-268 CNS = test system: SF-268 CNS
SNB-75 CNS = test system: SNB-75 CNS
SF-539 CNS = test system: SF-539 CNS
UO-31 renal = test system: UO-31 renal
A498 renal = test system: A498 renal
NCI-H460 lung = test system: NCI-H460 lung
IGROV1 ovarian = test system: IGROV1 ovarian
HCC-2998 colon = test system: HCC-2998 colon
UACC-257 melanoma = test system: UACC-257 melanoma
NCI/ADR-RES ovarian = test system: NCI/ADR-RES ovarian
NCI-H23 lung = test system: NCI-H23 lung
SF-295 CNS = test system: SF-295 CNS
MOLT-4 leukemia = test system: MOLT-4 leukemia
P388 leukemia = test system: P388 leukemia
LOX IMVI melanoma = test system: LOX IMVI melanoma
K-562 leukemia = test system: K-562 leukemia
HT29 colon = test system: HT29 colon
OVCAR-5 ovarian = test system: OVCAR-5 ovarian
HL-60(TB) leukemia = test system: HL-60(TB) leukemia
SN12K1 renal = test system: SN12K1 renal
SK-MEL-28 melanoma = test system: SK-MEL-28 melanoma
DMS 273 small cell lung = test system: DMS 273 small cell lung
XF 498 CNS = test system: XF 498 CNS
SW-620 colon = test system: SW-620 colon
RXF 393 renal = test system: RXF 393 renal
SN12C renal = test system: SN12C renal
EKVX NSCLC = test system: EKVX NSCLC
SK-MEL-2 melanoma = test system: SK-MEL-2 melanoma
OVCAR-3 ovarian = test system: OVCAR-3 ovarian
KM20L2 colon = test system: KM20L2 colon
UACC-62 melanoma = test system: UACC-62 melanoma
COLO 205 colon = test system: COLO 205 colon
MALME-3M melanoma = test system: MALME-3M melanoma
KM12 colon = test system: KM12 colon
DLD-1 colon = test system: DLD-1 colon
HOP-92 NSCLC = test system: HOP-92 NSCLC
SK-MEL-5 melanoma = test system: SK-MEL-5 melanoma
SK-OV-3 ovarian = test system: SK-OV-3 ovarian
CAKI-1 renal = test system: CAKI-1 renal
NCI-H226 lung = test system: NCI-H226 lung
HCT-15 colon = test system: HCT-15 colon
SNB-19 CNS = test system: SNB-19 CNS
U251 CNS = test system: U251 CNS
OVCAR-4 ovarian = test system: OVCAR-4 ovarian
HCT-116 colon = test system: HCT-116 colon
OVCAR-8 ovarian = test system: OVCAR-8 ovarian
MCF7 breast = test system: MCF7 breast
HOP-18 NSCLC = test system: HOP-18 NSCLC
RXF-631 renal = test system: RXF-631 renal
PC-3 prostate = test system: PC-3 prostate
BT-549 breast = test system: BT-549 breast
MDA-N = test system: MDA-N
LXFL 529 NSCLC = test system: LXFL 529 NSCLC
SR leukemia = test system: SR leukemia
T-47D breast = test system: T-47D breast
MDA-MB-231 breast = test system: MDA-MB-231 breast
HS 578T breast = test system: HS 578T breast
DU-145 prostate = test system: DU-145 prostate
TK-10 renal = test system: TK-10 renal
MDA-MB-435 = test system: MDA-MB-435
ACHN renal = test system: ACHN renal
CCRF-CEM leukemia = test system: CCRF-CEM leukemia
M14 melanoma = test system: M14 melanoma
786-0 renal = test system: 786-0 renal
DMS 114 small cell lung = test system: DMS 114 small cell lung

What does the source list for `N/C(=N\N=C/c1cc(Cl)cc(Cl)c1O)NO`?
TGI (A549 NSCLC): 36.5 µM; TGI (HOP-62 NSCLC): 12.5 µM; TGI (RPMI-8226 leukemia): 39.9 µM; TGI (M19-MEL melanoma): 27 µM; TGI (SNB-78 CNS): > 100 µM; TGI (SF-268 CNS): > 100 µM; TGI (SNB-75 CNS): 9.58 µM; TGI (SF-539 CNS): 8.34 µM; TGI (UO-31 renal): 13.7 µM; TGI (A498 renal): 18.8 µM; TGI (NCI-H460 lung): 14.2 µM; TGI (IGROV1 ovarian): 44.3 µM; TGI (HCC-2998 colon): 10.1 µM; TGI (UACC-257 melanoma): 29.3 µM; TGI (NCI/ADR-RES ovarian): 26.6 µM; TGI (NCI-H23 lung): 19.8 µM; TGI (SF-295 CNS): 15.2 µM; TGI (MOLT-4 leukemia): > 23 µM; TGI (P388 leukemia): 1.49 µM; TGI (LOX IMVI melanoma): 6.66 µM; TGI (K-562 leukemia): > 46.3 µM; TGI (HT29 colon): > 62.7 µM; TGI (OVCAR-5 ovarian): 33.5 µM; TGI (HL-60(TB) leukemia): 0.694 µM; TGI (SN12K1 renal): 6.93 µM; TGI (SK-MEL-28 melanoma): 44.7 µM; TGI (DMS 273 small cell lung): 11.9 µM; TGI (XF 498 CNS): 6.45 µM; TGI (SW-620 colon): 38.5 µM; TGI (RXF 393 renal): 26.8 µM; TGI (SN12C renal): 33.4 µM; TGI (EKVX NSCLC): 37.6 µM; TGI (SK-MEL-2 melanoma): 23.1 µM; TGI (OVCAR-3 ovarian): 53.6 µM; TGI (KM20L2 colon): 30.2 µM; TGI (UACC-62 melanoma): 6.73 µM; TGI (COLO 205 colon): > 43.7 µM; TGI (MALME-3M melanoma): 24 µM; TGI (KM12 colon): 22.4 µM; TGI (DLD-1 colon): > 100 µM; TGI (HOP-92 NSCLC): 46.8 µM; TGI (SK-MEL-5 melanoma): 12.5 µM; TGI (SK-OV-3 ovarian): 24.2 µM; TGI (CAKI-1 renal): 10.1 µM; TGI (NCI-H226 lung): 9.82 µM; TGI (HCT-15 colon): 17.8 µM; TGI (SNB-19 CNS): > 53.9 µM; TGI (U251 CNS): > 100 µM; TGI (OVCAR-4 ovarian): 20.9 µM; TGI (HCT-116 colon): 12.3 µM; TGI (OVCAR-8 ovarian): 19 µM; TGI (MCF7 breast): 10.3 µM; TGI (HOP-18 NSCLC): > 100 µM

Which TGI (A549 NSCLC) does the source give for `O=C1c2c(O)cccc2C(C(=O)CCCC(=O)C2c3cccc(O)c3C(=O)c3c(O)cccc32)c2cccc(O)c21` here?
The TGI was 1.64 µM.

And the TGI (HOP-62 NSCLC)?
The TGI was 2.09 µM.

And the TGI (RPMI-8226 leukemia)?
The TGI was 0.752 µM.

And the TGI (M19-MEL melanoma)?
The TGI was 4.17 µM.

And the TGI (SNB-78 CNS)?
Its TGI is 0.785 µM.

What about the TGI (SF-268 CNS) of the same compound?
The TGI was 3.39 µM.

And the TGI (RXF-631 renal)?
Its TGI is 3.99 µM.

And the TGI (SNB-75 CNS)?
The TGI was 2.82 µM.

What about the TGI (SF-539 CNS) of the same compound?
The TGI was 0.675 µM.

And the TGI (UO-31 renal)?
The TGI was 1.08 µM.

And the TGI (A498 renal)?
The TGI was 3.66 µM.

What about the TGI (PC-3 prostate) of the same compound?
The TGI was 0.467 µM.

And the TGI (NCI-H460 lung)?
Its TGI is 0.661 µM.

And the TGI (IGROV1 ovarian)?
The TGI was 2.41 µM.

What about the TGI (HCC-2998 colon) of the same compound?
Its TGI is 3.4 µM.

And the TGI (UACC-257 melanoma)?
The TGI was 0.893 µM.

What about the TGI (NCI-H23 lung) of the same compound?
The TGI was 1.13 µM.

And the TGI (SF-295 CNS)?
Its TGI is 2.22 µM.

What about the TGI (MOLT-4 leukemia) of the same compound?
The TGI was 17.5 µM.

What about the TGI (LOX IMVI melanoma) of the same compound?
Its TGI is 1.8 µM.

And the TGI (K-562 leukemia)?
Its TGI is 4.86 µM.

What about the TGI (BT-549 breast) of the same compound?
The TGI was 4.74 µM.

And the TGI (MDA-N)?
Its TGI is 3.39 µM.

What about the TGI (LXFL 529 NSCLC) of the same compound?
Its TGI is 0.48 µM.

And the TGI (HT29 colon)?
The TGI was 2.48 µM.

And the TGI (OVCAR-5 ovarian)?
The TGI was 1.18 µM.

And the TGI (SR leukemia)?
The TGI was 4.64 µM.

What about the TGI (T-47D breast) of the same compound?
The TGI was 0.941 µM.

What about the TGI (SK-MEL-28 melanoma) of the same compound?
Its TGI is 4.53 µM.

What about the TGI (MDA-MB-231 breast) of the same compound?
Its TGI is 0.329 µM.

And the TGI (HS 578T breast)?
Its TGI is 0.202 µM.

What about the TGI (DMS 273 small cell lung) of the same compound?
The TGI was 1.26 µM.

And the TGI (XF 498 CNS)?
The TGI was 0.226 µM.

What about the TGI (SW-620 colon) of the same compound?
The TGI was 14.3 µM.

And the TGI (SN12C renal)?
The TGI was 12.2 µM.

And the TGI (EKVX NSCLC)?
The TGI was 2.35 µM.

What about the TGI (DU-145 prostate) of the same compound?
Its TGI is 2.02 µM.

What about the TGI (SK-MEL-2 melanoma) of the same compound?
The TGI was 0.861 µM.

And the TGI (TK-10 renal)?
Its TGI is 1.67 µM.

And the TGI (OVCAR-3 ovarian)?
Its TGI is 0.798 µM.

What about the TGI (KM20L2 colon) of the same compound?
Its TGI is 8.68 µM.

What about the TGI (UACC-62 melanoma) of the same compound?
Its TGI is 2.04 µM.

What about the TGI (COLO 205 colon) of the same compound?
Its TGI is 1.32 µM.

And the TGI (MDA-MB-435)?
The TGI was 2.5 µM.

And the TGI (MALME-3M melanoma)?
The TGI was 2.85 µM.

And the TGI (KM12 colon)?
Its TGI is 0.868 µM.

What about the TGI (ACHN renal) of the same compound?
The TGI was 1.02 µM.

And the TGI (CCRF-CEM leukemia)?
The TGI was 8.02 µM.

And the TGI (M14 melanoma)?
Its TGI is 2.48 µM.

What about the TGI (DLD-1 colon) of the same compound?
Its TGI is 7 µM.

What about the TGI (HOP-92 NSCLC) of the same compound?
The TGI was 1 µM.

What about the TGI (SK-MEL-5 melanoma) of the same compound?
The TGI was 0.671 µM.

What about the TGI (SK-OV-3 ovarian) of the same compound?
The TGI was 1.05 µM.

What about the TGI (CAKI-1 renal) of the same compound?
The TGI was 4.45 µM.

And the TGI (NCI-H226 lung)?
The TGI was 1.47 µM.

And the TGI (HCT-15 colon)?
Its TGI is 1.38 µM.

And the TGI (SNB-19 CNS)?
The TGI was 4.12 µM.

What about the TGI (786-0 renal) of the same compound?
The TGI was 9.72 µM.

And the TGI (U251 CNS)?
The TGI was 1.88 µM.

And the TGI (OVCAR-4 ovarian)?
The TGI was 0.82 µM.

What about the TGI (HCT-116 colon) of the same compound?
The TGI was 3.79 µM.

What about the TGI (OVCAR-8 ovarian) of the same compound?
Its TGI is 2.77 µM.

What about the TGI (MCF7 breast) of the same compound?
Its TGI is 25 µM.

And the TGI (HOP-18 NSCLC)?
Its TGI is 0.828 µM.

What about the TGI (DMS 114 small cell lung) of the same compound?
The TGI was 0.502 µM.
